In the supplement of paper PMC10307832:

Experiments:
Test in all cases: relative viability (nuclei count vs DMSO), 5 days (fraction); higher = more cells survive
Pictilisib + Trametinib = compound: CS(=O)(=O)N1CCN(Cc2cc3nc(-c4cccc5[nH]ncc45)nc(N4CCOCC4)c3s2)CC1 [Pictilisib] + CC(=O)Nc1cccc(-n2c(=O)n(C3CC3)c(=O)c3c(Nc4ccc(I)cc4F)n(C)c(=O)c(C)c32)c1 [Trametinib] (partner 0.02 µM)
Procedure, shortened: (§1)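 Lung cancer cell lines in 1536-well plates were dosed by pin tool the day after seeding, either with one drug alone or with a fixed anchor-drug dose plus five library-drug doses (not always all listed) in √10 steps. After 5 days, cells were fixed and their nuclei stained in one step (final 0.05% Triton X-100, 1% formaldehyde, 1 ug/ml Hoechst), then counted on 4× images. Relative viability is the nuclei count in treated wells divided by that in vehicle wells. Values are medians of duplicate plates.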

Pictilisib + Vorinostat = compound: CS(=O)(=O)N1CCN(Cc2cc3nc(-c4cccc5[nH]ncc45)nc(N4CCOCC4)c3s2)CC1 [Pictilisib] + O=C(CCCCCCC(=O)Nc1ccccc1)NO [Vorinostat] (partner 1 µM)
Procedure, shortened: as §1

Pictilisib + Olaparib = compound: CS(=O)(=O)N1CCN(Cc2cc3nc(-c4cccc5[nH]ncc45)nc(N4CCOCC4)c3s2)CC1 [Pictilisib] + O=C(c1cc(Cc2n[nH]c(=O)c3ccccc23)ccc1F)N1CCN(C(=O)C2CC2)CC1 [Olaparib] (partner 8 µM)
Procedure, shortened: as §1

MK-2206 + Bortezomib = compound: NC1(c2ccc(-c3nc4ccn5c(=O)[nH]nc5c4cc3-c3ccccc3)cc2)CCC1 [MK-2206] + CC(C)C[C@H](NC(=O)[C@H](Cc1ccccc1)NC(=O)c1cnccn1)B(O)O [Bortezomib] (partner 0.002 µM)
Procedure, shortened: as §1

MK-2206 + Decitabine = compound: NC1(c2ccc(-c3nc4ccn5c(=O)[nH]nc5c4cc3-c3ccccc3)cc2)CCC1 [MK-2206] + Nc1ncn([C@H]2C[C@H](O)[C@@H](CO)O2)c(=O)n1 [Decitabine] (partner 2 µM)
Procedure, shortened: as §1

NCI-H1651
relative viability (Pictilisib + Trametinib; first compound 0.02 µM): 0.753
relative viability (Pictilisib + Trametinib; first compound 0.06325 µM): 0.825
relative viability (Pictilisib + Trametinib; first compound 0.6325 µM): 0.7
relative viability (Pictilisib + Trametinib; first compound 2 µM): 0.656
relative viability (Pictilisib + Vorinostat; first compound 0.02 µM): 0.519
relative viability (Pictilisib + Vorinostat; first compound 0.06325 µM): 0.551
relative viability (Pictilisib + Vorinostat; first compound 0.6325 µM): 0.538
relative viability (Pictilisib + Vorinostat; first compound 2 µM): 0.344
relative viability (Pictilisib + Olaparib; first compound 0.02 µM): 0.18
relative viability (Pictilisib + Olaparib; first compound 0.06325 µM): 0.187
relative viability (Pictilisib + Olaparib; first compound 0.6325 µM): 0.21
relative viability (Pictilisib + Olaparib; first compound 2 µM): 0.191
relative viability (MK-2206 + Bortezomib; first compound 0.01 µM): 0.881
relative viability (MK-2206 + Bortezomib; first compound 0.03162 µM): 0.903
relative viability (MK-2206 + Bortezomib; first compound 0.3162 µM): 1.02
relative viability (MK-2206 + Bortezomib; first compound 1 µM): 0.947
relative viability (MK-2206 + Decitabine; first compound 0.01 µM): 0.592
relative viability (MK-2206 + Decitabine; first compound 0.03162 µM): 0.652
relative viability (MK-2206 + Decitabine; first compound 0.3162 µM): 0.637
relative viability (MK-2206 + Decitabine; first compound 1 µM): 0.432

NCI-H1666
relative viability (Pictilisib + Trametinib; first compound 0.02 µM): 0.802
relative viability (Pictilisib + Trametinib; first compound 0.06325 µM): 0.892
relative viability (Pictilisib + Trametinib; first compound 0.6325 µM): 0.622
relative viability (Pictilisib + Trametinib; first compound 2 µM): 0.575
relative viability (Pictilisib + Vorinostat; first compound 0.02 µM): 1.09
relative viability (Pictilisib + Vorinostat; first compound 0.06325 µM): 1.03
relative viability (Pictilisib + Vorinostat; first compound 0.6325 µM): 0.916
relative viability (Pictilisib + Vorinostat; first compound 2 µM): 0.867
relative viability (Pictilisib + Olaparib; first compound 0.02 µM): 0.751
relative viability (Pictilisib + Olaparib; first compound 0.06325 µM): 0.762
relative viability (Pictilisib + Olaparib; first compound 0.6325 µM): 0.813
relative viability (Pictilisib + Olaparib; first compound 2 µM): 0.756
relative viability (MK-2206 + Bortezomib; first compound 0.01 µM): 0.832
relative viability (MK-2206 + Bortezomib; first compound 0.03162 µM): 0.801
relative viability (MK-2206 + Bortezomib; first compound 0.3162 µM): 0.613
relative viability (MK-2206 + Bortezomib; first compound 1 µM): 0.5
relative viability (MK-2206 + Decitabine; first compound 0.01 µM): 0.589
relative viability (MK-2206 + Decitabine; first compound 0.03162 µM): 0.703
relative viability (MK-2206 + Decitabine; first compound 0.3162 µM): 0.765
relative viability (MK-2206 + Decitabine; first compound 1 µM): 0.684

NCI-H1734
relative viability (Pictilisib + Trametinib; first compound 0.02 µM): 0.692
relative viability (Pictilisib + Trametinib; first compound 0.06325 µM): 0.717
relative viability (Pictilisib + Trametinib; first compound 0.6325 µM): 0.499
relative viability (Pictilisib + Trametinib; first compound 2 µM): 0.315
relative viability (Pictilisib + Vorinostat; first compound 0.02 µM): 0.878
relative viability (Pictilisib + Vorinostat; first compound 0.06325 µM): 0.779
relative viability (Pictilisib + Vorinostat; first compound 0.6325 µM): 0.482
relative viability (Pictilisib + Vorinostat; first compound 2 µM): 0.375
relative viability (Pictilisib + Olaparib; first compound 0.02 µM): 0.582
relative viability (Pictilisib + Olaparib; first compound 0.06325 µM): 0.581
relative viability (Pictilisib + Olaparib; first compound 0.6325 µM): 0.477
relative viability (Pictilisib + Olaparib; first compound 2 µM): 0.215
relative viability (MK-2206 + Bortezomib; first compound 0.01 µM): 0.847
relative viability (MK-2206 + Bortezomib; first compound 0.03162 µM): 1.02
relative viability (MK-2206 + Bortezomib; first compound 0.3162 µM): 0.66
relative viability (MK-2206 + Bortezomib; first compound 1 µM): 0.725
relative viability (MK-2206 + Decitabine; first compound 0.01 µM): 0.527
relative viability (MK-2206 + Decitabine; first compound 0.03162 µM): 0.516
relative viability (MK-2206 + Decitabine; first compound 0.3162 µM): 0.469
relative viability (MK-2206 + Decitabine; first compound 1 µM): 0.447

NCI-H1755
relative viability (Pictilisib + Trametinib; first compound 0.02 µM): 0.821
relative viability (Pictilisib + Trametinib; first compound 0.06325 µM): 0.667
relative viability (Pictilisib + Trametinib; first compound 0.6325 µM): 0.718
relative viability (Pictilisib + Trametinib; first compound 2 µM): 0.327
relative viability (Pictilisib + Vorinostat; first compound 0.02 µM): 0.795
relative viability (Pictilisib + Vorinostat; first compound 0.06325 µM): 0.812
relative viability (Pictilisib + Vorinostat; first compound 0.6325 µM): 0.642
relative viability (Pictilisib + Vorinostat; first compound 2 µM): 0.354
relative viability (Pictilisib + Olaparib; first compound 0.02 µM): 0.872
relative viability (Pictilisib + Olaparib; first compound 0.06325 µM): 0.84
relative viability (Pictilisib + Olaparib; first compound 0.6325 µM): 0.806
relative viability (Pictilisib + Olaparib; first compound 2 µM): 0.403
relative viability (MK-2206 + Bortezomib; first compound 0.01 µM): 0.96
relative viability (MK-2206 + Bortezomib; first compound 0.03162 µM): 0.99
relative viability (MK-2206 + Bortezomib; first compound 0.3162 µM): 0.838
relative viability (MK-2206 + Bortezomib; first compound 1 µM): 0.689
relative viability (MK-2206 + Decitabine; first compound 0.01 µM): 0.724
relative viability (MK-2206 + Decitabine; first compound 0.03162 µM): 0.71
relative viability (MK-2206 + Decitabine; first compound 0.3162 µM): 0.726
relative viability (MK-2206 + Decitabine; first compound 1 µM): 0.638
